Read-outs that look alike come from different tables or passages of the source.
Test system: cell line HS695T
Experiment: Cell viability via Trypan blue staining in cell culture experiments
Format: cell-based
Details: Homo sapiens, Hs 695T
Experimental: Cell lines and pharmacological characterization. Cell line HS695T (CLS) was cultured in DMEM (4 mM L-glutamine, 4.5 g/l glucose, Invitrogen) with 10% fetal bovine serum (Biochrom) and maintained at 37° C. under 5% CO2 atmosphere. The cells were dispensed as triplicates into a 6-well-plate-formate with a concentration of 5×10^5 per well 24 hours prior to drug treatment. Afterwards medium was replaced with a final drug concentration range of 2.5 nM to 8 μM by 3.16-fold dilutions (eight-dose response) of Sunitinib and PI103 as single treatment HS695T for 72 and 96 hours. […] Compounds (Selleckchem) were diluted in DMSO. The final DMSO concentration for the experiments was under 0.4%. Cell viability was determined via Trypan blue staining in duplicates for each well. 100 μl of cells were incubated with an equal volume of 0.5% Trypan blue for 2-5 minutes (in 0.9% sodium chloride) and counted using a Neubauer haemocytometer chamber and a light microscope. The means of independent cell counts were taken for analysis.
Predicted growth inhibition curves were compared to measured growth inhibition curves as previously described.

CCN(CC)CCNC(=O)c1c(C)[nH]c(/C=C2\C(=O)Nc3ccc(F)cc32)c1C [Sunitinib]
IC50 (HS695T, read-out: sensitivity classification according to IC50 determined by cell culture experiments): > 2000 nM | IC50 (HS695T, single treatment, 2.5 nM to 8 μM, 72 and 96 hours, Trypan blue cell counts, read-out: IC50 values determined by cell culture experiments): 4700 nM

Oc1cccc(-c2nc(N3CCOCC3)c3oc4ncccc4c3n2)c1 [PI103]
IC50 (read-out: IC50 values determined by cell culture experiments): 830 nM | IC50 (read-out: sensitivity classification according to IC50 determined by cell culture experiments): < 2000 nM

Source: patent US20160259918A1, “Computational Approach for Identifying a Combination of Two Drugs” (ALACRIS THERANOSTICS GMBH, priority 2013, published 2016)
